Measurements as given in ChEMBL document CHEMBL5728583, “Galactoside inhibitor of galectins” (2021).

How the values were obtained:
Galectin-3 = Galectin-3 (Homo sapiens, UniProt P17931); test: fluorescence anisotropy assay: The affinity of Example 1-33 for galectins were determined by a fluorescence anisotropy assay where the compound was used as an inhibitor of the interaction between galectin and a fluorescein tagged saccharide probe as described Sörme, P., Kahl-Knutsson, B., Huflejt, M., Nilsson, U. J., and Leffler H. (2004) Fluorescence polarization as an analytical tool to evaluate galectin-ligand interactions. Anal. Biochem. 334: 36-47, (Sörme et al., 2004) and Monovalent interactions of Galectin-1 By Salomonsson, Emma; Larumbe, Amaia; Tejler, Johan; Tullberg, Erik; Rydberg, Hanna; Sundin, Anders; Khabut, Areej; Frejd, Torbjorn; Lobsanov, Yuri D.; Rini, James M.; et al, From Biochemistry (2010), 49(44), 9518-9532, (Salomonsson et al., 2010).
Galectin-1 = Galectin-1 (Homo sapiens, UniProt P09382); test: fluorescence anisotropy assay: The affinity of Example 1-33 for galectins were determined by a fluorescence anisotropy assay where the compound was used as an inhibitor of the interaction between galectin and a fluorescein tagged saccharide probe as described Sörme, P., Kahl-Knutsson, B., Huflejt, M., Nilsson, U. J., and Leffler H. (2004) Fluorescence polarization as an analytical tool to …
Sequence of Galectin-1 (P09382 whole entry): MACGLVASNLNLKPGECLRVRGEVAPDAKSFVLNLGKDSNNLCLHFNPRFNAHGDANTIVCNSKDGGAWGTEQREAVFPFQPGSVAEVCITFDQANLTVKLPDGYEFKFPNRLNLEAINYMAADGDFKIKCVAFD

Sequence of Galectin-3 (P17931 whole entry): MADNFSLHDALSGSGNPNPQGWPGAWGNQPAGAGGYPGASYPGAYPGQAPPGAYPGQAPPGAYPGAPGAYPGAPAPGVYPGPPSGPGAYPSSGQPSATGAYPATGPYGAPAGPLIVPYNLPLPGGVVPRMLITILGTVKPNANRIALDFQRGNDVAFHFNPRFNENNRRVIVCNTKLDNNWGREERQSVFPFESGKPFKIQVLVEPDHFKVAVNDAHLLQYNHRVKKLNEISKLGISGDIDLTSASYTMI

Work on OC[C@H]1O[C@H](Sc2ccc(Cl)c(Cl)c2)[C@H](O)[C@@H](n2cc(-c3nc(O)cs3)nn2)[C@H]1O yielded a Kd (Galectin-3) of 1700 nM and a Kd (Galectin-1) of 650 nM.
